Test results taken from patent US10328065B2, “Pharmaceutical combination comprising the PI3K inhibitor alpelisib and the B-RAF inhibitor dabrafenib; the use of such combination in the treatment or prevention of cancer” (Novartis AG, priority 2015, dated 2019).

Experiments:
Assay type in all cases: cell-based
[1] = test system: LIM2551; assay: Cell proliferation (cell count by microscopy) and HSA synergy, LIM2551; details: LIM2551 (BRAF, PIK3CA mutant); 72 h; 50% of cell counts relative to DMSO; tested A 13 nM-10 μM, B 1.4 nM-1 μM
Experimental: (§1) COMPOUNDS A and B were dissolved in 100% DMSO (Sigma, Catalog number D2650) at concentrations of 20 mM and stored at −20° C. until use. Compounds were arrayed in drug master plates (Greiner, Catalog number 788876) and serially diluted 3-fold (7 steps) at 2000× concentration.
(§2) Colorectal cancer cell lines used for this study were obtained, cultured and processed from commercial vendors ATCC, HSRRB, and CellBank Australia (Table 1). All cell line media were supplemented with 10% FBS (HyClone, Catalog number SH30071.03). Media for LIM2405 and LIM2551 was additionally supplemented with 0.6 μg/mL Insulin (SIGMA, Catalog number 19278), 1 μg/mL Hydrocortisone (SIGMA, Catalog number H0135), and 10 μM 1-Thioglycerol (SIGMA, Catalog number M6145).
(§3) Cell lines were cultured in 37° C. and 5% CO2 incubator and expanded in T-75 flasks. In all cases cells were thawed from frozen stocks, expanded through ≥1 passage using 1:3 dilutions, counted and assessed for viability using a ViCell counter (Beckman-Coulter) prior to plating. To split and expand cell lines, cells were dislodged from flasks using 0.25% Trypsin-EDTA (GIBCO, Catalog number 25200). All cell lines were determined to be free of mycoplasma contamination as determined by a PCR detection methodology performed at Idexx Radil (Columbia, Mo., USA) and correctly identified by detection of a panel of SNPs. […]

[2] = test system: HT-29; assay: Cell proliferation (cell count by microscopy) and HSA synergy, HT-29; details: Homo sapiens; HT-29 (BRAF, PIK3CA mutant); 72 h; 50% of cell counts relative to DMSO; tested A 13 nM-10 μM, B 1.4 nM-1 μM
Experimental: as §1, §2, §3

[3] = test system: OUMS-23; assay: Cell proliferation (cell count by microscopy) and HSA synergy, OUMS-23; details: OUMS-23 (BRAF mutant); 72 h; 50% of cell counts relative to DMSO; tested A 13 nM-10 μM, B 1.4 nM-1 μM
Experimental: as §1, §2, §3

[4] = test system: LIM2405; assay: Cell proliferation (cell count by microscopy) and HSA synergy, LIM2405; details: LIM2405 (BRAF mutant); 72 h; 50% of cell counts relative to DMSO; tested A 13 nM-10 μM, B 1.4 nM-1 μM
Experimental: as §1, §2, §3

[5] = test system: COLO-205; assay: Cell proliferation (cell count by microscopy) and HSA synergy, COLO-205; details: Homo sapiens; COLO-205 (BRAF mutant); 72 h; 50% of cell counts relative to DMSO; tested A 13 nM-10 μM, B 1.4 nM-1 μM
Experimental: as §1, §2, §3

[6] = test system: LS411N; assay: Cell proliferation (cell count by microscopy) and HSA synergy, LS411N; details: Homo sapiens, LS-411N; LS411N (BRAF mutant); 72 h; 50% of cell counts relative to DMSO; tested A 13 nM-10 μM, B 1.4 nM-1 μM
Experimental: as §1, §2, §3

[7] = test system: RKO; assay: Cell proliferation (cell count by microscopy) and HSA synergy, RKO; details: Homo sapiens, cell line printed RXO (BRAF, PIK3CA mutant), 72 h, 50% of cell counts relative to DMSO, tested A 13 nM-10 μM, B 1.4 nM-1 μM
Experimental: as §1, §2, §3

SMILES | IC50 [1] | IC50 [2] | IC50 [3] | IC50 [4] | IC50 [5] | IC50 [6] | IC50 [7]
Cc1nc(NC(=O)N2CCC[C@H]2C(N)=O)sc1-c1ccnc(C(C)(C)C(F)(F)F)c1 [COMPOUND A, (S)-Pyrrolidine-1,2-dicarboxylic acid 2-amide 1-({4-methyl-5-[2-(2,2,2-trifluoro-1,1-dimethyl-ethyl)-pyridin-4-yl]-thiazol-2-yl}-amide)] | 1.4 µM | 1.9 µM | > 10 µM | > 10 µM | > 10 µM | > 10 µM | 2.6 µM
CC(C)(C)c1nc(-c2cccc(NS(=O)(=O)c3c(F)cccc3F)c2F)c(-c2ccnc(N)n2)s1 [COMPOUND B, N-{3-[5-(2-Amino-4-pyrimidinyl)-2-(1,1-dimethylethyl)-1,3-thiazol-4-yl]-2-fluorophenyl}-2,6-difluorobenzenesulfonamide] | 0.023 µM | 0.012 µM | > 1 µM | 0.007 µM | 0.01 µM | > 1 µM | 0.191 µM
